The results in this text go back to PubChem BioAssay AID256 (DTP/NCI, 2004).

SMILES strings stand for the structures. Several values for one entry are separate records, joined by “and”; a condition that tells them apart may be missing. Identical values can stand only once. Toxic doses and inconclusive results are not listed.

The subject of the experiment is CD2F1 mice, L1210 leukemia ip, survival T/C. Kind of experiment: NCI In Vivo Anticancer Drug Screen. Data for tumor model L1210 Leukemia (intraperitoneal) in CD2F1 (CDF1) mice. To be noted: endpoint: mean survival time, higher = longer survival. An outline of the steps: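 Tumor-bearing mice (transplanted tumor) were split into treated and vehicle control groups, and the measured endpoint of each treated group was divided by that of its vehicle controls.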

Where [1] appears, read: dose: 100.0 mg/kg/injection, schedule: Q04DX003 (ip), vehicle: saline with Tween-80.
[2] abbreviates: dose: 200.0 mg/kg/injection, schedule: Q01DX009 (ip), vehicle: saline with Tween-80.
[3] abbreviates: dose: 200.0 mg/kg/injection, schedule: Q04DX003 (ip), vehicle: saline with Tween-80.
Where [4] appears, read: dose: 400.0 mg/kg/injection, schedule: Q04DX003 (ip), vehicle: saline with Tween-80.
The mark [5] stands for this setting: dose: 100.0 mg/kg/injection, schedule: Q04DX002 (ip), vehicle: saline with Tween-80.
The mark [6] stands for this setting: dose: 200.0 mg/kg/injection, schedule: Q04DX002 (ip), vehicle: saline with Tween-80.
[7] abbreviates: dose: 400.0 mg/kg/injection, schedule: Q04DX002 (ip), vehicle: saline with Tween-80.
[8] abbreviates: dose: 100.0 mg/kg/injection, schedule: Q01DX009 (ip), vehicle: Klucel (hydroxypropylcellulose) (HPC).

Take `C[C@]12C=CC(=O)C=C1CC[C@@H]1[C@@H]2[C@@H](O)C[C@@]2(C)[C@H]1CC[C@]2(O)C(=O)CO`: the T/C by setting is: (dose: 12.5 mg/kg/injection, schedule: Q01DX010 (sc), vehicle: steriod suspending solution) 108 % of control; (dose: 25.0 mg/kg/injection, schedule: Q01DX009 (sc), vehicle: steriod suspending solution) 106 % of control and 109 % of control; (dose: 25.0 mg/kg/injection, schedule: Q01DX010 (sc), vehicle: steriod suspending solution) 108 % of control; (dose: 50.0 mg/kg/injection, schedule: Q01DX009 (sc), vehicle: steriod suspending solution) 113 % of control and 106 % of control; (dose: 50.0 mg/kg/injection, schedule: Q01DX010 (sc), vehicle: steriod suspending solution) 112 % of control; (dose: 100.0 mg/kg/injection, schedule: Q01DX009 (sc), vehicle: steriod suspending solution) 116 % of control. Moreover, the T/C is 108 % of control (dose: 100.0 mg/kg/injection, schedule: Q01DX010 (sc), vehicle: steriod suspending solution); 113 % of control and 116 % of control (dose: 200.0 mg/kg/injection, schedule: Q01DX009 (sc), vehicle: steriod suspending solution).
Regarding `CCOC(=O)C1CN(Cc2ccccc2)CCC1=O` (stereo not drawn), the T/C by setting is: (dose: 100.0 mg/kg/injection, schedule: Q01DX009 (ip), vehicle: saline) 100 % of control; (dose: 200.0 mg/kg/injection, schedule: Q01DX009 (ip), vehicle: saline) 103 % of control.
For `Nc1nc(S)c(N)c(=S)[nH]1`, the T/C (dose: 75.0 mg/kg/injection, schedule: Q01DX001 (ip), vehicle: carboxymethylcellulose (CMC)) is 102 % of control.
Turning to `O=C1NC(=O)C2CCCCC12` (stereo not drawn), the T/C (dose: 100.0 mg/kg/injection, schedule: Q01DX009 (ip), vehicle: saline with Tween-80) is 100 % of control; the T/C under setting [1] is 97 % of control; the T/C under setting [2] was 95 % of control; the T/C under setting [3] is 101 % of control; the T/C (dose: 400.0 mg/kg/injection, schedule: Q01DX009 (ip), vehicle: saline with Tween-80) is 95 % of control; the T/C under setting [4] was 95 % of control.
Turning to `CC([NH-])CC(C)[NH-].O=C(O)C(=O)O.[Pt+2]` (stereo not drawn), the T/C (dose: 12.5 mg/kg/injection, schedule: Q04DX003 (ip), vehicle: saline with Tween-80) is 169 % of control; the T/C (dose: 12.5 mg/kg/injection, schedule: Q04DX003 (ip), vehicle: saline) is 156 % of control; the T/C (dose: 25.0 mg/kg/injection, schedule: Q04DX003 (ip), vehicle: saline with Tween-80) was 100 % of control; the T/C (dose: 25.0 mg/kg/injection, schedule: Q04DX003 (ip), vehicle: saline) is 186 % of control.
Regarding `COc1cc(C2CNCc3cc(OC)c(OC)cc32)ccc1O` (stereo not drawn), the T/C was 96 % of control (dose: 75.0 mg/kg/injection, schedule: Q01DX001 (ip), vehicle: saline); 104 % of control (dose: 150.0 mg/kg/injection, schedule: Q01DX001 (ip), vehicle: saline); 100 % of control (dose: 300.0 mg/kg/injection, schedule: Q01DX001 (ip), vehicle: saline).
Turning to `Cc1cc(NC(=O)Oc2ccc([N+](=O)[O-])cc2)ccc1S(=O)(=O)F`, the T/C runs as follows: (dose: 25.0 mg/kg/injection, schedule: Q01DX009 (ip), vehicle: saline with Tween-80) 91 % of control and 98 % of control; (dose: 50.0 mg/kg/injection, schedule: Q01DX009 (ip), vehicle: saline with Tween-80) 87 % of control and 96 % of control; (dose: 100.0 mg/kg/injection, schedule: Q01DX001 (ip), vehicle: saline with Tween-80) 95 % of control; under setting [5], 93 % of control and 100 % of control; under setting [1], 94 % of control; (dose: 200.0 mg/kg/injection, schedule: Q01DX001 (ip), vehicle: saline with Tween-80) 101 % of control. Moreover, the T/C runs as follows: under setting [2], 91 % of control; under setting [6], 93 % of control and 107 % of control; under setting [3], 96 % of control; (dose: 400.0 mg/kg/injection, schedule: Q01DX001 (ip), vehicle: saline with Tween-80) 98 % of control; under setting [7], 100 % of control and 103 % of control; under setting [4], 102 % of control.
In the case of `CCCCCCCCCCCOc1ccc(Cl)cc1Cl`, the T/C was 90 % of control under setting [5], 93 % of control under setting [6] and 86 % of control under setting [7].
In the case of `CC1OC(OC2C(O)C(CO)OC(OC3C(C(=O)O)OC(OC4CCC5(C)C(CCC6(C)C5CC=C5C7CC(C)(C)C(O)C(O)C7(CO)C(O)CC56C)C4(C)C)C(OC4OC(CO)C(O)C(O)C4O)C3O)C2O)C(O)C(O)C1O` (stereo not drawn), the T/C is, setting by setting: (dose: 50.0 mg/kg/injection, schedule: Q04DX002 (ip), vehicle: saline with Tween-80) 98 % of control; under setting [5], 102 % of control; under setting [6], 107 % of control.
As to `Nc1cccc(-c2nc3ncnc(N)c3[nH]2)c1`, the T/C was 94 % of control under setting [1], 94 % of control under setting [3] and 93 % of control under setting [4].
Turning to `CCOC(=O)CC(C)(C)NCc1ccccc1`, the T/C was 91 % of control (dose: 25.0 mg/kg/injection, schedule: Q01DX009 (ip), vehicle: Klucel (hydroxypropylcellulose) (HPC)); 97 % of control (dose: 50.0 mg/kg/injection, schedule: Q01DX009 (ip), vehicle: Klucel (hydroxypropylcellulose) (HPC)); 91 % of control under setting [8].
In the case of `NC(=O)/C(=N/O)c1ccccc1`, the T/C was 104 % of control under setting [1], 106 % of control under setting [3] and 102 % of control under setting [4].
As to `COc1cc(/C=N/NC(=O)c2ccccc2)ccc1O`, the T/C was 97 % of control under setting [8]; 97 % of control (dose: 200.0 mg/kg/injection, schedule: Q01DX009 (ip), vehicle: Klucel (hydroxypropylcellulose) (HPC)); 97 % of control (dose: 400.0 mg/kg/injection, schedule: Q01DX009 (ip), vehicle: Klucel (hydroxypropylcellulose) (HPC)).
With `CCC12OC3(CC)C4C(=O)OC1C1(CC)OC4(CC)C3C(=O)OC21`, the T/C is, setting by setting: (dose: 100.0 mg/kg/injection, schedule: Q01DX001 (ip), vehicle: saline) 103 % of control; (dose: 100.0 mg/kg/injection, schedule: Q04DX003 (ip), vehicle: saline) 102 % of control; (dose: 200.0 mg/kg/injection, schedule: Q01DX001 (ip), vehicle: saline) 102 % of control; (dose: 200.0 mg/kg/injection, schedule: Q04DX003 (ip), vehicle: saline) 100 % of control; (dose: 400.0 mg/kg/injection, schedule: Q01DX001 (ip), vehicle: saline) 96 % of control; (dose: 400.0 mg/kg/injection, schedule: Q04DX003 (ip), vehicle: saline) 94 % of control.
Turning to `Nc1nc(Cl)nc(Cl)n1`, the T/C was 102 % of control (dose: 12.5 mg/kg/injection, schedule: Q01DX001 (ip), vehicle: saline with Tween-80); 105 % of control (dose: 25.0 mg/kg/injection, schedule: Q01DX001 (ip), vehicle: saline with Tween-80); 100 % of control (dose: 50.0 mg/kg/injection, schedule: Q01DX001 (ip), vehicle: saline with Tween-80).
